From publication PMC7835349 (Communications Biology, 2021)
Where “and” joins values, the source holds several entries; their conditions need not be identical. Identical values can stand only once. Like-named read-outs stand apart in the source and are kept apart here.

What was measured:
RS4;11 xenograft = experiment: RS4;11 mouse xenograft efficacy (tumour volume); format: in vivo, C.B-17 SCID mouse; design: key to tumour volume, individual animals: tumour volume in mm³, length × width²/0.52; conditions: for tumour volume, individual animals: 10 mg/kg; for Tumour volume, Geo Mean: RS4;11 xenograft
Experimental: Female C.B.−17 SCID mice were purchased from Charles River Laboratories. Mice were 5–8 weeks old at the time of tumour implantation. All xenograft studies were conducted at our Association for the Assessment and Accreditation of Laboratory Animal Care accredited facility in Waltham, MA in accordance with ethical regulations described in the guidelines established by the internal Institutional Animal Care and Use Committee. The dendrimer conjugates were formulated in citrate/phosphate buffer pH 5.0, diluted 1:10 with 5% glucose containing 1% w/v Kolliphor HS15, and AZD4320 was formulated in 30% HP-β-CD and dosed as a weekly intravenous (IV) administration at a volume of 5 ml/kg at the indicated doses. Five million RS4;11, five million SUDHL-4 or five million OCI-LY-10 cells were injected subcutaneously in the right flank of mice in a volume of 0.1 ml. Tumour volumes (measured by caliper), animal body weight, and tumor condition were recorded twice weekly for the duration of the study. The tumour volume was calculated (taking length to be the longest diameter across the tumour and width to be the corresponding perpendicular diameter) using the formula: length (mm) x width (mm)^2/0.52. For efficacy studies, mice were randomized based on tumour volumes using stratified sampling and enrolled into control and treatment groups. Tumour growth inhibition from the start of treatment was quantified by measuring the difference in tumour volume between control and treated groups. Survival analysis was evaluated using Mantel-Cox test. Tumours were also taken for bioanalysis.

cleaved caspase-3 (CC3) = experiment: Cleaved caspase-3 in RS4;11 tumours by MSD ELISA; format: in vivo, C.B-17 SCID mouse; conditions: for CC3 PD fold over vehicle, individual tumours: RS4;11, single dose 10 mg/kg or equivalent
Experimental: Tumours were excised, snap frozen in liquid nitrogen and stored at –80 °C. Tumours were homogenised in lysis buffer containing protease and phosphatase inhibitors, protein concentration determined by Pierce BCA Protein Assay Kit and diluted in lysis buffer to a protein concentration of 0.4 μg/μL. Cleaved caspase-3 (CC3) was measured using the mesoscale cleaved caspase-3 (Asp175) assay whole cell lysate kit according to manufacturer’s instructions. Induction of CC3 was expressed as fold change of treated tumours over vehicle control.

[1] = Plasma pharmacokinetics after IV bolus in C.B-17 SCID mouse; format: in vivo; conditions: for concentration at 0.05 h / concentration at 0.5 h / concentration at 1 h / concentration at 2 h / concentration at 4 h / concentration at 6 h / concentration at 8 h / Concentration AZD4320 in Plasma, individual animals: 5 mg/kg, mouse IV
Experimental: Pharmacokinetic studies were carried out in the female C.B-17 SCID mouse. Either freshly prepared solutions of AZD4320 in 30% hydroxypropyl-β-cyclodextrin or drug-dendrimer conjugates in phosphate buffered saline were injected as a bolus into the tail vein at dosing volume of 5 ml/kg. Blood samples were collected at different time points post dose and analysed as below.
Blood samples were collected from the jugular vein by venepuncture into K2EDTA (as anticoagulant) tubes. Immediately following collection into the K2EDTA tube the samples were mixed gently and kept on crushed ice until centrifugation. Within 30 mins of blood collection, each sample was centrifuged (1500 g for 10 min at 4 °C) to generate plasma which was kept on wet ice at all times in polypropylene tubes. Duplicate 50 μL aliquots were transferred immediately after centrifugation into uniquely labelled polypropylene tubes (‘released’ AZD4320) containing equivalent amount (50 μL) of 0.2 M citric acid solution, inverted 10 times and then stored in a freezer set to maintain a temperature of −80 °C, until analysis.
The concentrations of ‘total’ AZD4320 were determined in plasma by overnight incubation with hydrazine followed by protein precipitation with acetonitrile and subsequent liquid/liquid extraction. Liquid chromatography with mass spectrometric detection (LC-MS/MS, details in Supplementary Table 5) was used to quantitate both ‘released’ and ‘total’ AZD4320.
Sample analyses were performed in batches containing study samples, calibration standards at 10 concentration levels, QC samples at three concentration levels in duplicate and blank samples. The analytical run acceptance criteria for calibration standards and QC samples was that at least 75% of back-calculated concentrations for calibration standards and at least 2/3 of the QC samples (at least 50% at each concentration level) should be within ±20% (±25% at LLOQ) from nominal value.

CN(CCO)CCC(CSc1ccccc1)Nc1ccc(S(=O)(=O)NC(=O)c2ccc(N3CCC(C(O)c4ccccc4-c4ccc(Cl)cc4)CC3)cc2)cc1S(=O)(=O)C(F)(F)F (stereo not drawn) [AZD4320]
tumour volume, individual animals (RS4;11 xenograft; Day 38, in mm³ (unit assumed)): 591 and 667 and 633 and 678 | tumour volume, individual animals (RS4;11 xenograft; Day 41, in mm³ (unit assumed)): 365 and 322 and 378 and 334 | tumour volume, individual animals (RS4;11 xenograft; Day 45, in mm³ (unit assumed)): 218 and 235 and 397 and 259 | tumour volume, individual animals (RS4;11 xenograft; Day 48): 0 (2×) and 160 and 156 | tumour volume, individual animals (RS4;11 xenograft; Day 52): 0 (3×) and 144 | tumour volume, individual animals (RS4;11 xenograft; Day 55): 0 (3×) and 87 | tumour volume, individual animals (RS4;11 xenograft; Day 59, in mm³ (unit assumed)): 144 and 155 and 220 and 196 | tumour volume, individual animals (RS4;11 xenograft; Day 63, in mm³ (unit assumed)): 388 and 353 and 396 and 530 | tumour volume, individual animals (RS4;11 xenograft; Day 66, in mm³ (unit assumed)): 257 and 221 and 387 and 438 | tumour volume, individual animals (RS4;11 xenograft; Day 69, in mm³ (unit assumed)): 351 and 316 and 514 and 702 | tumour volume, individual animals (RS4;11 xenograft; Day 73, in mm³ (unit assumed)): 1003 and 568 and 1069 and 1242 | anti-tumour activity (RS4;11 xenograft; RS4;11 tumours, IV, 10 mg/kg or equivalent): complete regression | Tumour volume, Geo Mean (RS4;11 xenograft; 10 mg/kg or equivalent, day 29, in mm³ (unit assumed)): 450.827 | Tumour volume, Geo Mean (RS4;11 xenograft; 10 mg/kg or equivalent, day 31, in mm³ (unit assumed)): 419.877 | Tumour volume, Geo Mean (RS4;11 xenograft; 10 mg/kg or equivalent, day 32, in mm³ (unit assumed)): 128.263 | Tumour volume, Geo Mean (RS4;11 xenograft; 10 mg/kg or equivalent, day 34, in mm³ (unit assumed)): 1 | Tumour volume, Geo Mean (RS4;11 xenograft; 10 mg/kg or equivalent, day 38, in mm³ (unit assumed)): 1 | Tumour volume, Geo Mean (RS4;11 xenograft; 10 mg/kg or equivalent, day 41, in mm³ (unit assumed)): 1 | Tumour volume, Geo Mean (RS4;11 xenograft; 10 mg/kg or equivalent, day 45, in mm³ (unit assumed)): 1 | Tumour volume, Geo Mean (RS4;11 xenograft; 10 mg/kg or equivalent, day 48, in mm³ (unit assumed)): 1 | Tumour volume, Geo Mean (RS4;11 xenograft; 10 mg/kg or equivalent, day 56, in mm³ (unit assumed)): 4.217 | Tumour volume, Geo Mean (RS4;11 xenograft; 10 mg/kg or equivalent, day 59, in mm³ (unit assumed)): 31.9033 | CC3 PD fold over vehicle, individual tumours (cleaved caspase-3 (CC3); 0.5 h, 10 mg/kg): 36.58 fold over vehicle and 31.76 fold over vehicle | CC3 PD fold over vehicle, individual tumours (cleaved caspase-3 (CC3); 1 h, 10 mg/kg): 36.44 fold over vehicle and 36.82 fold over vehicle | CC3 PD fold over vehicle, individual tumours (cleaved caspase-3 (CC3); 5 h, 10 mg/kg): 42.22 fold over vehicle and 39.06 fold over vehicle | CC3 PD fold over vehicle, individual tumours (cleaved caspase-3 (CC3); 24 h, 10 mg/kg): 21.02 fold over vehicle and 47.67 fold over vehicle | time of onset of CC3 activation (cleaved caspase-3 (CC3); RS4;11 tumours, 10 mg/kg or equivalent): ≤ 0.5 h | maximal activation of cleaved caspase-3 (CC3) (cleaved caspase-3 (CC3); RS4;11 tumours, 10 mg/kg, by 5 h, sustained for 24 h): 40 fold | plasma concentration relative to initial concentration ([1]; bolus IV, C.B-17 SCID mice, within 10 min): less than 20% | concentration at 0.05 h ([1]; female, C.B-17 SCID, mouse, plasma, intravenous, dosed at 5 mg/kg, 0.05 hr, read-out: Concentration AZD4320 in Plasma, Dose Adjusted to 10 mg/kg): 30600 ng/mL | concentration at 0.5 h ([1]; female, C.B-17 SCID, mouse, plasma, intravenous, dosed at 5 mg/kg, 0.5 hr, read-out: Concentration AZD4320 in Plasma, Dose Adjusted to 10 mg/kg): 1950 ng/mL | concentration at 1 h ([1]; female, C.B-17 SCID, mouse, plasma, intravenous, dosed at 5 mg/kg, 1 hr, read-out: Concentration AZD4320 in Plasma, Dose Adjusted to 10 mg/kg): 870 ng/mL | concentration at 2 h ([1]; female, C.B-17 SCID, mouse, plasma, intravenous, dosed at 5 mg/kg, 2 hr, read-out: Concentration AZD4320 in Plasma, Dose Adjusted to 10 mg/kg): 150 ng/mL | concentration at 4 h ([1]; female, C.B-17 SCID, mouse, plasma, intravenous, dosed at 5 mg/kg, 4 hr, read-out: Concentration AZD4320 in Plasma, Dose Adjusted to 10 mg/kg): 170 ng/mL | concentration at 6 h ([1]; female, C.B-17 SCID, mouse, plasma, intravenous, dosed at 5 mg/kg, 6 hr, read-out: Concentration AZD4320 in Plasma, Dose Adjusted to 10 mg/kg): 120 ng/mL | concentration at 8 h ([1]; female, C.B-17 SCID, mouse, plasma, intravenous, dosed at 5 mg/kg, 8 hr, read-out: Concentration AZD4320 in Plasma, Dose Adjusted to 10 mg/kg): 80 ng/mL | concentration at 0.05 h ([1]; female, C.B-17 SCID, mouse, plasma, iv, AZD4320 dosed at 5 mg/kg, 0.05 hr, read-out: Concentration AZD4320 in Plasma, Mean): 15300 ng/mL | concentration at 0.05 h ([1]; female, C.B-17 SCID, mouse, plasma, iv, AZD4320 dosed at 5 mg/kg, 0.05 hr, read-out: Concentration AZD4320 in Plasma, individual animals): 13900 ng/mL | concentration at 0.5 h ([1]; female, C.B-17 SCID, mouse, plasma, iv, AZD4320 dosed at 5 mg/kg, 0.5 hr, read-out: Concentration AZD4320 in Plasma, Mean): 977 ng/mL | concentration at 0.5 h ([1]; female, C.B-17 SCID, mouse, plasma, iv, AZD4320 dosed at 5 mg/kg, 0.5 hr, read-out: Concentration AZD4320 in Plasma, individual animals): 1080 ng/mL | concentration at 1 h ([1]; female, C.B-17 SCID, mouse, plasma, iv, AZD4320 dosed at 5 mg/kg, 1 hr, read-out: Concentration AZD4320 in Plasma, Mean): 436 ng/mL | concentration at 1 h ([1]; female, C.B-17 SCID, mouse, plasma, iv, AZD4320 dosed at 5 mg/kg, 1 hr, read-out: Concentration AZD4320 in Plasma, individual animals): 579 ng/mL | concentration at 2 h ([1]; female, C.B-17 SCID, mouse, plasma, iv, AZD4320 dosed at 5 mg/kg, 2 hr, read-out: Concentration AZD4320 in Plasma, Mean): 75.3 ng/mL | concentration at 2 h ([1]; female, C.B-17 SCID, mouse, plasma, iv, AZD4320 dosed at 5 mg/kg, 2 hr, read-out: Concentration AZD4320 in Plasma, individual animals): 79.7 ng/mL | concentration at 4 h ([1]; female, C.B-17 SCID, mouse, plasma, iv, AZD4320 dosed at 5 mg/kg, 4 hr, read-out: Concentration AZD4320 in Plasma, Mean): 86.3 ng/mL | concentration at 6 h ([1]; female, C.B-17 SCID, mouse, plasma, iv, AZD4320 dosed at 5 mg/kg, 6 hr, read-out: Concentration AZD4320 in Plasma, Mean): 60.1 ng/mL | concentration at 8 h ([1]; female, C.B-17 SCID, mouse, plasma, iv, AZD4320 dosed at 5 mg/kg, 8 hr, read-out: Concentration AZD4320 in Plasma, Mean): 41.3 ng/mL | clearance ([1]; female, C.B-17 SCID, plasma, mouse, 3-compartment model, conventional IV dose, read-out: Total Plasma Clearance CL (converted)): 0.493 mL/min | Concentration AZD4320 in Plasma, individual animals ([1]; AZD4320 dosed at 5 mg/kg, 0.05 hr): 16000 ng/mL | Concentration AZD4320 in Plasma, individual animals ([1]; AZD4320 dosed at 5 mg/kg, 0.5 hr): 1030 ng/mL and 822 ng/mL | Concentration AZD4320 in Plasma, individual animals ([1]; AZD4320 dosed at 5 mg/kg, 1 hr): 402 ng/mL and 328 ng/mL | Concentration AZD4320 in Plasma, individual animals ([1]; AZD4320 dosed at 5 mg/kg, 2 hr): 67.8 ng/mL and 78.4 ng/mL | Concentration AZD4320 in Plasma, individual animals ([1]; AZD4320 dosed at 5 mg/kg, 4 hr): 131 ng/mL and 54.4 ng/mL and 73.6 ng/mL | Concentration AZD4320 in Plasma, individual animals ([1]; AZD4320 dosed at 5 mg/kg, 6 hr): 92.1 ng/mL and 39.5 ng/mL and 48.8 ng/mL | Concentration AZD4320 in Plasma, individual animals ([1]; AZD4320 dosed at 5 mg/kg, 8 hr): 52.9 ng/mL and 53.4 ng/mL and 17.6 ng/mL | Compartmental Micro Constant k12 ([1]; mouse, 3-compartment model): 2.31 h⁻¹ | Compartmental Micro Constant k13 ([1]; mouse, 3-compartment model): 3.92 h⁻¹ | Compartmental Micro Constant k21 ([1]; mouse, 3-compartment model): 0.108 h⁻¹ | Compartmental Micro Constant k31 ([1]; mouse, 3-compartment model): 4.36 h⁻¹ | Central Compartment Volume Vc ([1]; mouse, 3-compartment model, conventional IV dose): 0.0042 L
